Experimental data taken from US7538094B2, “Composition containing ribavirin and use thereof” (Three Rivers Pharmacueticals, LLC, priority 2002, dated 2009).

What was measured:
[1] = cited from earlier work
[2] = Angle of repose (flowability); type: physicochemical; conditions: sample passed through 12 mesh screen, funnel with 1 cm aperture
Excerpt: Another measure of flowability can be made by determining a material's angle of repose. The angle of repose is a standard test in the pharmaceutical industry to establish the relative flowability of a solid pharmaceutical formulation. (See, e.g., Lachman et al., “The Theory and Practice of Industrial Pharmacy” 3rd Ed. (1986) pp 67-68). A greater angle of repose means a less flowable material. Remington's Pharmaceuticals Sciences lists the angle of repose for glass beads (a high flowing material) at 23 degrees and for granular limestone (a poor flowing material) at 64 degrees. Cohesive materials can be as high as 90 degrees. (See Remington's Pharmaceutical Sciences, 19th Ed. Mack Publishing Co., (1995) p. 1607).
Angle of repose data was collected for ribavirin composition made in accordance with Examples 1 and 3 and compared to bulk ribavirin and a commercial ribavirin product. In determining the angle of repose for the compositions of the present invention and comparative examples thereto, a sample was passed through a 12 mesh screen to break up agglomerates. […] The funnel height was then measured, as well as the diameter (width) of the sample. […] The angle of repose for a given sample was calculated by taking the inverse tangent of the following equation: Tan (a)=2H/W, where H is the height of the funnel from the paper and W is the averaged diameter of the poured sample at its base.

[3] = cited from earlier work; remark: listed apart in the source

## NC(=O)c1ncn([C@@H]2O[C@H](CO)[C@@H](O)[C@H]2O)n1 [ribavirin, 1-β-D-ribofuranosyl-1H-1,2,4-triazole-3-carboxamide]
[1]
  solubility: water-soluble
[2]; Trial 1
  Repose Angle, Trial 1: 44 °
[2]; Trial 2
  Repose Angle, Trial 2: 42 °
[3]; administered with a high fat meal
  bioavailability with food: increase significantly
[3]; in vivo, after multiple oral dosing (steady state)
  biological half-life: ca. 298 hours
[3]; oral administration, Physician's Desk Reference
  bioavailability (AUC) versus dose: increases linearly with the dose
[3]; oral administration, curvilinear, reaching an asymptote, Physician's Desk Reference
  maximum concentration of the drug in vivo (Cmax) versus dose: does not increase linearly with the dose
